The test system of this assay is mutant spike proteins including D614G, delta (B.1.617.2), and omicron (B.1.1.529) – hACE2. Type of assay: binding, SARS-CoV-2, human. Particulars: read-out: IC50 in all assays with mutant spike proteins.

A value given as a limit tells only on which side of the number the result lay.

A word on the IC50: it is the concentration needed to halve the response being measured. Turning to `O=C(Nc1ccc(-c2ccc(C(=O)Nc3cccc4cc(S(=O)(=O)O)ccc34)cc2)cc1)c1ccc([N+](=O)[O-])cc1` [DRI-C23041], the half-inhibitory concentration (IC50) is less than 3000 nM. Turning to `O=S(=O)(O)c1ccc(/N=N/c2c(O)ccc3cc(S(=O)(=O)O)ccc23)cc1` [Sunset yellow, sunset yellow FCF], the IC50 is more than 500000 nM. In the case of `O=C(Nc1ccc(-c2ccc(C(=O)Nc3cccc4c(S(=O)(=O)O)cccc34)cc2)cc1)c1ccc([N+](=O)[O-])cc1` [DRI-C24041], the IC50 was less than 3000 nM.

(Values after PMC9504289 (Pharmaceuticals, 2022).)
